Data: patent publication US20040142881A1, “Novel immunosuppressive agent” (TOYO SUISAN KAISHA, LTD., priority 2001, published 2004)

Test system: responder cells (T lymphocytes)
Experiment: Mixed lymphocytes reaction ([3H]-thymidine uptake of responder cells)
Type: cell-based, human
Conditions: test substance at 2.5, 5, 10, 25 μg/mL (Nos. 1-6) or 5, 10, 25 μg/mL (Nos. 7-12); 4 days culture with mitomycin C-treated stimulator cells; FIGS. 1 and 2
Procedure: Mixed lymphocytes reaction
Lymphocytes serving as stimulator cells and responder cells were prepared from blood taken from individual healthy persons.
The responder cells were further separated from the lymphocyte cells to give T lymphocytes alone.
No treatment was applied to the responder cells. 10^6/mL of the stimulator cells were treated with 10 μg/mL of mitomycin C to stop the cell growth.
Subsequently, the responder cells were inoculated in a 96-well plate, at a rate of 10^5 cells per well, and then test substances (compound Nos. 1 to 12 listed in Table 1 below) were added to a predetermined concentration. The reaction mixture was cultured at 37° C. for one hour. Thereafter, the stimulator cells were added at a rate of 10^5 cells per well. The mixture was cultured in a CO2 incubator at 37° C. for 4 days. After the incubation, the proliferation ability of the responder cells was quantified as follows. First, [^3H]-thymidine was added to the responder cells and incorporated into the nucleus of the cells by culturing the cells for 16 hours. Then, the amount of [^3H]-thymidine uptake into the cells was determined by a scintillation counter.

## CCCCCCCCCCCCCCCCCC(=O)OCC(CO[C@@H]1O[C@H](CS(=O)(=O)[O-])[C@H](O)[C@H](O)[C@H]1O)OC(=O)CCCCCCCCCCCCCCCCC.[Na+] (stereo partly drawn) [compound No. 12, 3-0-(6-deoxy-6-sulfo-β-D-galactopyranosyl)-1,2-di-0-stearoyl-glycerol sodium salt]
  immunosuppressive activity (amount of [3H]-thymidine uptake; the lower the uptake, the higher the activity): not confirmed
